Among the data in patent publication US20250236608A1, “EGFR INHIBITORS” (Blueprint Medicines Corporation, priority 2022, published 2025) are IC50 values, retold here.

SMILES strings stand for the structures.

Assay [1] concerns the target pEGFR (Tyr1068) in PC-9 cells (Ex19Del) (Homo sapiens (Human), UniProt P00533, DEL746-750). Put plainly: PC-9 pEGFR AlphaLISA assay. The assay is classed as cell-based. To be noted: 4 hours incubation, p-EGFR (Tyr1068) AlphaLISA, read-out: Ext pEGFR_PC-9 Ex19Del IC50. An outline of the steps: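 PC-9 cells seeded overnight in phenol-free DMEM with 10% FBS, then treated 4 h at 37°C with a 10-point, 4-fold compound series. Lysates assayed for pEGFR Tyr1068 by AlphaLISA SureFire; IC50 from % inhibition vs log concentration.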

The target of a further assay is EGFR (d746-750) (Homo sapiens (Human), UniProt P00533, DEL746-750). Briefly: Biochemical EGFR inhibition assay, EGFR (d746-750). To be noted: Caliper mobility shift; 1.0 mM ATP or ATP Km; read-out: Enz EGFR_Exon19-del746-750 IC50.
Sequence of EGFR (d746-750) (P00533 other isoform, or with tags, fused parts or gaps del 1-694/del 746-750 limits assumed): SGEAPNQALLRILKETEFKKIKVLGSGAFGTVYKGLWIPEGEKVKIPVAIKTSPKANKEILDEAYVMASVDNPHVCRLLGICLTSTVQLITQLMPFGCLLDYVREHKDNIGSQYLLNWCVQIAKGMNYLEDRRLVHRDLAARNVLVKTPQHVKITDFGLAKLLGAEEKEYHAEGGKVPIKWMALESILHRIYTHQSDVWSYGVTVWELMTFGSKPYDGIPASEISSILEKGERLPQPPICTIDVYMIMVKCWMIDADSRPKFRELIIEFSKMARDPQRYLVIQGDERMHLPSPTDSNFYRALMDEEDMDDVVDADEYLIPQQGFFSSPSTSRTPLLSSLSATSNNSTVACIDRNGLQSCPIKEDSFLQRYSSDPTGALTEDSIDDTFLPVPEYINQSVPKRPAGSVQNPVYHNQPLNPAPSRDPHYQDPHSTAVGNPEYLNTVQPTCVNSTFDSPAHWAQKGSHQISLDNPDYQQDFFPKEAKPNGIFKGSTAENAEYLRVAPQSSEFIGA
Another assay concerns the target EGFR L858R (Homo sapiens (Human), UniProt P00533, L858R). Briefly: Biochemical EGFR inhibition assay, EGFR L858R. The note with it: Caliper mobility shift; 1.0 mM ATP or ATP Km; read-out: Enz EGFR_L858R IC50.

Sequence of EGFR L858R (P00533 25-1210 L858R): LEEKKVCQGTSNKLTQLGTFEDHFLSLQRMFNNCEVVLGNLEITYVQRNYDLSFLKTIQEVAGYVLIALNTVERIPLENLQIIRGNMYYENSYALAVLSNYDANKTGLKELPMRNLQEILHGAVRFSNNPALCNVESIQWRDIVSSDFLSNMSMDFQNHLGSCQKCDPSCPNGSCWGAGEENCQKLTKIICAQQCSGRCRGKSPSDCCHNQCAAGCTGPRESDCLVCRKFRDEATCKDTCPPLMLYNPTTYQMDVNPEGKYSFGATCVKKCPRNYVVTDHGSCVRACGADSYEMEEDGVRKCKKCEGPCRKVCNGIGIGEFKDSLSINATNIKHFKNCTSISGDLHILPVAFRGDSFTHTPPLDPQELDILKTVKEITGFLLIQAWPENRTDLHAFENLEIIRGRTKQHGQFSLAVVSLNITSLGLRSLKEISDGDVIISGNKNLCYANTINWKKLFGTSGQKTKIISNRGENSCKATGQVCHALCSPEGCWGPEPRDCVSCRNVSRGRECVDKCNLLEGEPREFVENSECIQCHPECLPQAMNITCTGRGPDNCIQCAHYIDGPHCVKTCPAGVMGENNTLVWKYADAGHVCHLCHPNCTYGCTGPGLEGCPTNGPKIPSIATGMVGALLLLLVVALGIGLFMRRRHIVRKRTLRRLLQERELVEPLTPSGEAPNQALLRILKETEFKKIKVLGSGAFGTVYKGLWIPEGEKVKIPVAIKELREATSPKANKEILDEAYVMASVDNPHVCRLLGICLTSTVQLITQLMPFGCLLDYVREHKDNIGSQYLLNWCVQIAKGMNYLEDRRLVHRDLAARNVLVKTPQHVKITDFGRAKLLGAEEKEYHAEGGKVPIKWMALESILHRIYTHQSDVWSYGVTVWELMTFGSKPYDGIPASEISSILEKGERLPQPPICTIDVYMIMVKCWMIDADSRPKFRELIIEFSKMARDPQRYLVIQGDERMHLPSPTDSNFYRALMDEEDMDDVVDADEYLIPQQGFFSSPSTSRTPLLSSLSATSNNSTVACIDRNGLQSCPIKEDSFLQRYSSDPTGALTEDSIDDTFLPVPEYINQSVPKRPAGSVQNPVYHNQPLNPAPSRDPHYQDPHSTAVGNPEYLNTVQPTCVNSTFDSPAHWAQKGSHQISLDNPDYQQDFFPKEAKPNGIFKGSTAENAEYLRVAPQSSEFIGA
Sequence of pEGFR (Tyr1068) in PC-9 cells (Ex19Del) (P00533 other isoform, or with tags, fused parts or gaps del 746-750): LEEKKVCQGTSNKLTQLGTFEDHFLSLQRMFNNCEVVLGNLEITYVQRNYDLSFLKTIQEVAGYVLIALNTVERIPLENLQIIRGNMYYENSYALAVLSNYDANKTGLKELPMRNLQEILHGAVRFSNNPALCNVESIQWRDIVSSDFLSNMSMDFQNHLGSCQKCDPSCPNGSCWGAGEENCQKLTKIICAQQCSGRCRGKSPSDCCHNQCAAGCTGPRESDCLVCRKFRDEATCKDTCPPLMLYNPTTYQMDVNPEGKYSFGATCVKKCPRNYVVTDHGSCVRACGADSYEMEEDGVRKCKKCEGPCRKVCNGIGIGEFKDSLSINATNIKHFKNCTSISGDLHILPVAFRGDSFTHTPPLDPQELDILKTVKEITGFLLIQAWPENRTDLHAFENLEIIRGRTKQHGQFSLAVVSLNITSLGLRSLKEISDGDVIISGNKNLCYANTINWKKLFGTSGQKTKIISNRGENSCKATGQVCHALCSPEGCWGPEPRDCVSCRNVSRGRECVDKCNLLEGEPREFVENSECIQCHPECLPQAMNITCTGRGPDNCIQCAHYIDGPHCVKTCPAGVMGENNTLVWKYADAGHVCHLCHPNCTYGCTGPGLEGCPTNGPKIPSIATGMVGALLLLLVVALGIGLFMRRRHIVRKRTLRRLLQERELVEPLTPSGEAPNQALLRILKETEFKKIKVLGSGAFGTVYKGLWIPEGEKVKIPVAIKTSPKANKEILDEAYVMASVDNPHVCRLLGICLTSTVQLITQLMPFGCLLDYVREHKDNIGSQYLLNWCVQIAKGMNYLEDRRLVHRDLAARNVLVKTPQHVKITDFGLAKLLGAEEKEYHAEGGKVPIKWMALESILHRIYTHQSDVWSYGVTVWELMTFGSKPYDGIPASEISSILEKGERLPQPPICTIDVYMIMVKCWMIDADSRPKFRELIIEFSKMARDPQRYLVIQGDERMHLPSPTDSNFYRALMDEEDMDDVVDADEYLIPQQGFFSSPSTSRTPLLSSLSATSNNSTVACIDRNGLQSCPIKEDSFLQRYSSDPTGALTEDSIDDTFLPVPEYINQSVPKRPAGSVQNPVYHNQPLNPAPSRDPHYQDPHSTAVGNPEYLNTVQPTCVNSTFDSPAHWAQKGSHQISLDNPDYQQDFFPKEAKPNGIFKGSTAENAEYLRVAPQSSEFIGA

What is called IC50 is the concentration at which inhibition is half-maximal. In the case of `COc1cc2ncnc(-c3cn(CC(F)F)nc3-c3ccccc3)c2nc1NC(=O)c1ccc(C2CC2)nc1` [Example 358, 6-cyclopropyl-N-(4-(1-(2,2-difluoroethyl)-3-phenyl-1H-pyrazol-4-yl)-7-methoxypyrido[3,2-d]pyrimidin-6-yl)nicotinamide], the results for the IC50 (in assay [1]; at EGFR (d746-750); on EGFR L858R) were 1 nM, 1.1 nM and 1.8 nM, respectively.
Taken in the same sequence, the figures for `COc1cc2ncnc(-c3cn(C)nc3-c3ccccc3)c2cc1NC(=O)C(C)F` (stereo not drawn) [Example 221, 2-fluoro-N-(7-methoxy-4-(1-methyl-3-phenyl-1H-pyrazol-4-yl)quinazolin-6-yl)propanamide] were 2.3 nM, 1 nM and 1.8 nM.
The like results for `CCOc1cc2ncnc(-c3cn(C)nc3-c3ccccc3)c2nc1NC(=O)[C@@]12COC[C@@H]1C2` (single isomer, unassigned) [Example 380, (1R,5R)—N-(7-ethoxy-4-(1-methyl-3-phenyl-1H-pyrazol-4-yl)pyrido[3,2-d]pyrimidin-6-yl)-3-oxabicyclo[3.1.0]hexane-1-carboxamide or (1S,5S)—N-(7-ethoxy-4-(1-methyl-3-phenyl-1H-pyrazol-4-yl)pyrido[3,2-d]pyrimidin-6-yl)-3-oxabicyclo[3.1.0]hexane-1-carboxamide] were, in that order, 1.4 nM, 0.7 nM and 2.5 nM.
The like results for `COC(=O)Nc1cc2c(-c3cn(C)nc3-c3ccccc3)ncnc2cc1OC` [Example 157, methyl (7-methoxy-4-(1-methyl-3-phenyl-1H-pyrazol-4-yl)quinazolin-6-yl)carbamate] were, in that order, 1 nM, 0.6 nM and 1 nM.
For the compound `Cn1cc(-c2ccc3c(-c4cnn(C)c4-c4ccccc4)ncnc3c2)cn1` [Example 497], the IC50 worked out at 38.6 nM in assay [1], 1.8 nM on EGFR (d746-750) and 1.4 nM at EGFR L858R.
Taken in the same sequence, the figures for `CCOc1cc2ncnc(-c3cn(C)nc3-c3ccccc3)c2cc1[C@H](C)O` (single isomer, unassigned) [Example 103, (S)-1-(7-ethoxy-4-(1-methyl-3-phenyl-1H-pyrazol-4-yl)quinazolin-6-yl)ethan-1-ol or (R)-1-(7-ethoxy-4-(1-methyl-3-phenyl-1H-pyrazol-4-yl)quinazolin-6-yl)ethan-1-ol] were 2.7 nM, 0.6 nM and 1.7 nM.
The like results for `COc1cc2ncnc(-c3cn(C)nc3-c3ccccc3)c2cc1-c1cccc2cn(C)nc12` [Example 138, 7-methoxy-6-(2-methyl-2H-indazol-7-yl)-4-(1-methyl-3-phenyl-1H-pyrazol-4-yl)quinazoline] were, in that order, 4.6 nM, 2.1 nM and 5.6 nM.
Taken in the same sequence, the figures for `COc1cc2ncnc(-c3cn(C)nc3-c3ccccc3)c2cc1NC(=O)C1(C)COC1` [Example 345, N-(7-methoxy-4-(1-methyl-3-phenyl-1H-pyrazol-4-yl)quinazolin-6-yl)-3-methyloxetane-3-carboxamide] were 7.8 nM, 1.9 nM and 4.7 nM.
As to `COc1cc2ncnc(-c3cn(C)nc3-c3ccccc3)c2cc1NC(=O)c1cccc(F)c1C` [Example 200, 3-fluoro-N-(7-methoxy-4-(1-methyl-3-phenyl-1H-pyrazol-4-yl)quinazolin-6-yl)-2-methylbenzamide], the results for the IC50 (in assay [1]; at EGFR (d746-750); on EGFR L858R) were 8.4 nM, 2.4 nM and 5.7 nM, respectively.
The like results for `COc1cc2ncnc(-c3cn(C)nc3-c3ccccc3)c2nc1NC(=O)c1ccccc1F` [Example 359, 2-fluoro-N-(7-methoxy-4-(1-methyl-3-phenyl-1H-pyrazol-4-yl)pyrido[3,2-d]pyrimidin-6-yl)benzamide] were, in that order, 1.6 nM, 0.7 nM and 1.6 nM.
Taken in the same sequence, the figures for `CCOc1cc2ncnc(-c3cn(C)nc3-c3ccccc3)c2cc1NC(=O)C1CC1` [Example 306, N-(7-ethoxy-4-(1-methyl-3-phenyl-1H-pyrazol-4-yl)quinazolin-6-yl)cyclopropanecarboxamide] were 0.6 nM, 1.1 nM and 1.4 nM.
`COc1cc2ncnc(-c3cnn(C(F)(F)F)c3-c3ccccc3)c2cc1NC(=O)C12CC(C1)C2` [Example 485, N-(7-methoxy-4-(5-phenyl-1-(trifluoromethyl)-1H-pyrazol-4-yl)quinazolin-6-yl)bicyclo[1.1.1]pentane-1-carboxamide]: the IC50 came to 1210 nM in assay [1], 76.3 nM at EGFR (d746-750) and 121 nM on EGFR L858R.
The like results for `COc1cc2ncnc(-c3cn(C)nc3-c3c(F)cccc3F)c2cc1NC(=O)[C@]12C[C@H]1CN(C)C2` [Example 293, (1R,5R)—N-(4-(3-(2,6-difluorophenyl)-1-methyl-1H-pyrazol-4-yl)-7-methoxyquinazolin-6-yl)-3-methyl-3-azabicyclo[3.1.0]hexane-1-carboxamide] were, in that order, 8.9 nM, 3.4 nM and 277 nM.
`COc1cc2ncnc(-c3cn(C)nc3-c3ccccc3)c2cc1NC(=O)c1cnn(C)c1` [Example 294, N-(7-methoxy-4-(1-methyl-3-phenyl-1H-pyrazol-4-yl)quinazolin-6-yl)-1-methyl-1H-pyrazole-4-carboxamide]: the IC50 was 1.1 nM in assay [1], 0.5 nM at EGFR (d746-750) and 1 nM at EGFR L858R.
As for `COc1cc2ncnc(-c3cn(C)nc3-c3ccccc3)c2nc1O[C@@H](C)c1nnc(C)o1` [Example 37, (S)-2-(1-((7-methoxy-4-(1-methyl-3-phenyl-1H-pyrazol-4-yl)pyrido[3,2-d]pyrimidin-6-yl)oxy)ethyl)-5-methyl-1,3,4-oxadiazole], the figures for the IC50 (in assay [1]; at EGFR (d746-750); at EGFR L858R) were 4.6 nM, 2 nM and 5.3 nM, respectively.
Taken in the same sequence, the figures for `CCOc1cc2ncnc(-c3cn(C(C)C)nc3-c3ccccc3)c2cc1CO` [Example 125, (7-ethoxy-4-(1-isopropyl-3-phenyl-1H-pyrazol-4-yl)quinazolin-6-yl)methanol] were 2.1 nM, 0.9 nM and 1.4 nM.
With `COc1cc2ncnc(-c3cn(C)nc3-c3ccccc3)c2cc1OC(=O)N1CCOCC12CC2` [Example 65, 7-methoxy-4-(1-methyl-3-phenyl-1H-pyrazol-4-yl)quinazolin-6-yl 7-oxa-4-azaspiro[2.5]octane-4-carboxylate], the values for the IC50 (in assay [1]; on EGFR (d746-750); at EGFR L858R) were 2.5 nM, 2.5 nM and 6.1 nM, respectively.
Regarding `COc1cc2ncnc(-c3cn(C)nc3-c3ccccc3)c2cc1NC(=O)c1ccnc(C)c1` [Example 194, N-(7-methoxy-4-(1-methyl-3-phenyl-1H-pyrazol-4-yl)quinazolin-6-yl)-2-methylisonicotinamide], the half-inhibitory concentration (IC50) was found to be 1.7 nM in assay [1], 0.7 nM on EGFR (d746-750) and 1.4 nM on EGFR L858R.
Consider `CCn1cc(-c2ncnc3cc(OC)c(NC(=O)[C@@]45COC[C@@H]4C5)nc23)c(-c2ccccc2)n1` (single isomer, unassigned) [Example 389, (1R,5R)—N-(4-(1-ethyl-3-phenyl-1H-pyrazol-4-yl)-7-methoxypyrido[3,2-d]pyrimidin-6-yl)-3-oxabicyclo[3.1.0]hexane-1-carboxamide or (1S,5S)—N-(4-(1-ethyl-3-phenyl-1H-pyrazol-4-yl)-7-methoxypyrido[3,2-d]pyrimidin-6-yl)-3-oxabicyclo[3.1.0]hexane-1-carboxamide], for which the concentration for half-maximal inhibition (IC50) in assay [1] was 0.4 nM; at EGFR (d746-750), 0.7 nM; at EGFR L858R it was 6.4 nM.
The like results for `COc1cc2ncnc(-c3cn(C)nc3-c3ccccc3)c2cc1NC(=O)c1cnc(C2CC2)s1` [Example 209, 2-cyclopropyl-N-(7-methoxy-4-(1-methyl-3-phenyl-1H-pyrazol-4-yl)quinazolin-6-yl)thiazole-5-carboxamide] were, in that order, 0.9 nM, 0.8 nM and 1.5 nM.
On to `COc1cc2ncnc(-c3cn(C)nc3-c3ccccc3F)c2cc1NC(=O)[C@@]12COC[C@@H]1C2` (single isomer, unassigned) [Example 240, (1R,5R)—N-(4-(3-(2-fluorophenyl)-1-methyl-1H-pyrazol-4-yl)-7-methoxyquinazolin-6-yl)-3-oxabicyclo[3.1.0]hexane-1-carboxamide or (1S,5S)—N-(4-(3-(2-fluorophenyl)-1-methyl-1H-pyrazol-4-yl)-7-methoxyquinazolin-6-yl)-3-oxabicyclo[3.1.0]hexane-1-carboxamide], for which the IC50 in assay [1] was 1.4 nM; on EGFR (d746-750), 0.8 nM; on EGFR L858R it was 1.8 nM.
The like results for `Cc1c(-c2ncnc3cc(-c4cnn(C)c4)ccc23)c(-c2ccccc2)nn1C` [Example 480, 4-(1,5-dimethyl-3-phenyl-1H-pyrazol-4-yl)-7-(1-methyl-1H-pyrazol-4-yl)quinazoline] were, in that order, 69.1 nM, 4.4 nM and 5.6 nM.
